# According to PubChem BioAssay (NCI):
# Several values for one entry are separate records, joined by “and”; a condition that tells them apart may be missing. Identical values can stand only once.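 Interpolation was linear, between the two tested concentrations surrounding the appropriate level; five concentrations were tested over 48 hours in 96-well plates. GI50 marks 50% less growth. Definition used: TGI = concentration required for complete inhibition of growth.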
# Columns and labels:
# Assay in all cases: inhibition of tumour cell growth, NCI panel, 48 h
# UACC-62 melanoma = test system: UACC-62 melanoma
# U251 CNS = test system: U251 CNS
# 786-0 renal = test system: 786-0 renal
# OVCAR-5 ovarian = test system: OVCAR-5 ovarian
# UO-31 renal = test system: UO-31 renal
# NCI-H522 lung = test system: NCI-H522 lung
# COLO 205 colon = test system: COLO 205 colon
# PC-3 prostate = test system: PC-3 prostate
# RPMI-8226 leukemia = test system: RPMI-8226 leukemia
# BT-549 breast = test system: BT-549 breast
# MCF7 breast = test system: MCF7 breast
# SN12C renal = test system: SN12C renal
# M14 melanoma = test system: M14 melanoma
# EKVX NSCLC = test system: EKVX NSCLC
# OVCAR-4 ovarian = test system: OVCAR-4 ovarian
# A498 renal = test system: A498 renal
# RXF 393 renal = test system: RXF 393 renal
# UACC-257 melanoma = test system: UACC-257 melanoma
# NCI-H460 lung = test system: NCI-H460 lung
# NCI-H226 lung = test system: NCI-H226 lung
# SNB-19 CNS = test system: SNB-19 CNS
# NCI-H23 lung = test system: NCI-H23 lung
# SR leukemia = test system: SR leukemia
# KM12 colon = test system: KM12 colon
# SK-OV-3 ovarian = test system: SK-OV-3 ovarian
# ACHN renal = test system: ACHN renal
# OVCAR-3 ovarian = test system: OVCAR-3 ovarian
# MDA-MB-435 = test system: MDA-MB-435
# HOP-62 NSCLC = test system: HOP-62 NSCLC
# SF-295 CNS = test system: SF-295 CNS
# SNB-75 CNS = test system: SNB-75 CNS
# HCT-15 colon = test system: HCT-15 colon
# CCRF-CEM leukemia = test system: CCRF-CEM leukemia
# A549 NSCLC = test system: A549 NSCLC
# DU-145 prostate = test system: DU-145 prostate
# TK-10 renal = test system: TK-10 renal
# SK-MEL-28 melanoma = test system: SK-MEL-28 melanoma
# HCT-116 colon = test system: HCT-116 colon
# IGROV1 ovarian = test system: IGROV1 ovarian
# SK-MEL-2 melanoma = test system: SK-MEL-2 melanoma
# SW-620 colon = test system: SW-620 colon
# OVCAR-8 ovarian = test system: OVCAR-8 ovarian
# MDA-N = test system: MDA-N
# HS 578T breast = test system: HS 578T breast
# HOP-92 NSCLC = test system: HOP-92 NSCLC
# NCI/ADR-RES ovarian = test system: NCI/ADR-RES ovarian
# MOLT-4 leukemia = test system: MOLT-4 leukemia
# K-562 leukemia = test system: K-562 leukemia
# LOX IMVI melanoma = test system: LOX IMVI melanoma
# HT29 colon = test system: HT29 colon
# CAKI-1 renal = test system: CAKI-1 renal
# HL-60(TB) leukemia = test system: HL-60(TB) leukemia
# MALME-3M melanoma = test system: MALME-3M melanoma
# SF-268 CNS = test system: SF-268 CNS
# T-47D breast = test system: T-47D breast
# SK-MEL-5 melanoma = test system: SK-MEL-5 melanoma
# SF-539 CNS = test system: SF-539 CNS
# MDA-MB-231 breast = test system: MDA-MB-231 breast
# HCC-2998 colon = test system: HCC-2998 colon
structure (smiles),measurement,setting,value
Cc1cc(O)c2c(c1)C(=O)C=CC2=O,TGI,UACC-62 melanoma,18.9 µM and 25.3 µM
same,GI50,U251 CNS,14.2 µM and 5.29 µM
same,TGI,U251 CNS,33.7 µM and 23.4 µM
same,GI50,786-0 renal,5.8 µM and 2.59 µM
same,TGI,786-0 renal,12.9 µM and > 21.6 µM
same,TGI,OVCAR-5 ovarian,43.1 µM and 34.4 µM
same,TGI,UO-31 renal,11.4 µM and 16.2 µM
same,GI50,NCI-H522 lung,3.8 µM and 1.46 µM
same,TGI,NCI-H522 lung,8.05 µM and 3.06 µM
same,TGI,COLO 205 colon,7.97 µM and > 21.2 µM
same,TGI,PC-3 prostate,46.3 µM and 25.5 µM
same,GI50,RPMI-8226 leukemia,3.29 µM and 0.39 µM
same,TGI,RPMI-8226 leukemia,17.9 µM and 3.44 µM
same,GI50,BT-549 breast,15.5 µM and 6.9 µM
same,TGI,BT-549 breast,30.3 µM and 21 µM
same,TGI,MCF7 breast,11.3 µM and 21.8 µM
same,TGI,SN12C renal,21.9 µM and 28.6 µM
same,TGI,M14 melanoma,25.7 µM and 21.7 µM
same,GI50,EKVX NSCLC,7.46 µM and 3.6 µM
same,TGI,EKVX NSCLC,20.6 µM and 15.2 µM
same,GI50,OVCAR-4 ovarian,14.5 µM and 6.75 µM
same,TGI,OVCAR-4 ovarian,28.8 µM and 19.5 µM
same,TGI,A498 renal,40.7 µM and 75.2 µM
same,TGI,RXF 393 renal,9.57 µM and 9.17 µM
same,GI50,UACC-257 melanoma,9.95 µM
same,TGI,UACC-257 melanoma,11.3 µM and 27.8 µM
same,TGI,NCI-H460 lung,45.5 µM and 31.1 µM
same,TGI,NCI-H226 lung,42.4 µM and 39.2 µM
same,TGI,SNB-19 CNS,46.7 µM and 31.2 µM
same,TGI,NCI-H23 lung,27.9 µM and 23 µM
same,GI50,SR leukemia,1.14 µM and 0.33 µM
same,TGI,KM12 colon,32.9 µM and 32.5 µM
same,TGI,SK-OV-3 ovarian,> 84.2 µM
same,GI50,ACHN renal,4.43 µM and 4 µM
same,TGI,ACHN renal,8.57 µM and 15.6 µM
same,TGI,OVCAR-3 ovarian,10 µM and 10.2 µM
same,GI50,MDA-MB-435,4.8 µM and 1.93 µM
same,TGI,MDA-MB-435,11.7 µM and 4.25 µM
same,TGI,HOP-62 NSCLC,44.7 µM and 34.2 µM
same,TGI,SF-295 CNS,32.7 µM and 39 µM
same,TGI,SNB-75 CNS,34 µM and 30 µM
same,GI50,HCT-15 colon,7.78 µM and 3.53 µM
same,TGI,HCT-15 colon,24.9 µM and 9.83 µM
same,TGI,CCRF-CEM leukemia,0.564 µM and 1.19 µM
same,TGI,A549 NSCLC,58 µM and 42.9 µM
same,TGI,DU-145 prostate,30.8 µM and 46.7 µM
same,GI50,TK-10 renal,5.92 µM and 12.7 µM
same,TGI,TK-10 renal,15.6 µM and 26.9 µM
same,GI50,SK-MEL-28 melanoma,20.4 µM and 8.89 µM
same,TGI,SK-MEL-28 melanoma,35.5 µM and 23.6 µM
same,TGI,HCT-116 colon,10.2 µM and > 20.2 µM
same,TGI,IGROV1 ovarian,27.4 µM and 24.1 µM
same,TGI,SK-MEL-2 melanoma,36.8 µM and 44.3 µM
same,GI50,SW-620 colon,7.3 µM and 2.67 µM
same,TGI,SW-620 colon,23.9 µM and 22.4 µM
same,GI50,OVCAR-8 ovarian,14.1 µM and 4.75 µM
same,TGI,OVCAR-8 ovarian,43.9 µM and 14.8 µM
same,TGI,MDA-N,9.13 µM and 4.68 µM
same,TGI,HS 578T breast,54.6 µM and 64.3 µM
same,GI50,HOP-92 NSCLC,2.33 µM and 2.51 µM
same,TGI,HOP-92 NSCLC,5.15 µM and 7.69 µM
same,TGI,NCI/ADR-RES ovarian,37 µM and 47.2 µM
same,TGI,MOLT-4 leukemia,1.71 µM and 1.61 µM
same,GI50,K-562 leukemia,0.322 µM and 1.25 µM
same,TGI,LOX IMVI melanoma,12.6 µM and > 100 µM
same,TGI,HT29 colon,12.3 µM and 21.3 µM
same,GI50,CAKI-1 renal,5.57 µM and 2.21 µM
same,TGI,CAKI-1 renal,13 µM and 6.47 µM
same,GI50,HL-60(TB) leukemia,0.0336 µM and 0.31 µM
same,TGI,HL-60(TB) leukemia,0.202 µM and 1.89 µM
same,GI50,MALME-3M melanoma,10.2 µM and 1.86 µM
same,TGI,MALME-3M melanoma,23.2 µM and 8.39 µM
same,TGI,SF-268 CNS,48.3 µM and 31.5 µM
same,TGI,T-47D breast,7.47 µM and 16.4 µM
same,GI50,SK-MEL-5 melanoma,7.53 µM and 2.27 µM
same,TGI,SK-MEL-5 melanoma,22.4 µM and 6.77 µM
same,TGI,SF-539 CNS,31.4 µM and 30.8 µM
same,TGI,MDA-MB-231 breast,25.3 µM and 18.6 µM
same,TGI,HCC-2998 colon,25.4 µM and 30 µM
